How the values were obtained:
melanoma cells = test: Antifolate agents as enhancers of TMZ, MTT assay (FIG. 7); type: cell-based; settings: 0.01 uM antifolate in combination with TMZ, 72 h
Description: FIG. 7 is a graph presenting the results of tests of several antifolate agents as enhancers of anti-neoplastic activity. […] Cells were treated with the indicated dose of TMZ alone, or in combination with 0.01 uM PYR, MTX (Methotrexate), TMP (Trimethoprim), TMTX (Trimetrexate), PTX (Piritrexim), and CYC (Cycloguanil). Cell growth was assessed by MTT assay after 72 h drug treatment.
Among the six “hits” identified from library screening, both PYR and triamterene are antifolate compounds.

SK-MEL 19 cells = test: MTT cell proliferation/viability assay in SK-MEL 19 melanoma cells; type: cell-based, human; settings: for sensitization to TMZ (effect on TMZ response curve): SK-MEL 19 cells
Description: Dose-response diagrams of SKM-19 cells exposed to TMZ (FIG. 2A) or pyrimethamine (PYR) (FIG. 2B) alone were prepared for comparison. Melanoma cells were exposed to the indicated concentration of TMZ or PYR for 72 hours. Cell growth inhibition was evaluated by the MTT assay. Survival relative to the control is presented as mean±standard error of the mean of at least three experiments (with viability of control cells set at 100%). In FIG. 2C, PYR enhances TMZ efficacy in various cancer cell lines. Cells were treated with indicated concentrations of TMZ or PYR at the same time and left for 72 hours. Cell viability was determined by MTT assay. SK-MeI 19, SK-Mel 100, SK-Mel 173, and SK-Mel 192 are melanoma cell lines; LN-18 and T98G are glioma cell lines. * P<0.05, **P<0.01.
(§1) FIGS. 8A-8C. PYR antifolate activity enhances TMZ chemotherapeutic efficacy. A, the growth inhibitory effects of PYR, DDEP, DDMP, CYC, and the classical antifolate MTX on TMZ response curve were examined by MTT assay in melanoma and glioma cells. […] The cytotoxic effect of the combination of TMZ (25 μg/ml) and PYR (0.5 μM) can be rescued by LV (10 μM) as examined by MTT assay (B) and the level of cleaved PARP (C) in SK-MEL 19 cells. 1. Control; 2. TMZ; 3. PYR; 4. TMZ+PYR; and 5. TMZ+PYR+LV. ** P<0.01, compared to 2, 3, or 5.
(§2) The cell growth and cytotoxicity after treatment with TMZ and/or PYR on melanoma cells and glioma cells was performed using Colorimetric MTT assay for cell survival and proliferation assay (MTT Assay Kit, Promega). Tumor cells were seeded at 3000 cells per well (100 μl volume) in 96-well plates and allowed to attach overnight. After TMZ and PYR treatment for 72 hours, the cells were stained with MTT, which is then converted to dark blue formazan crystals by mitochondrial dehydrogenases in viable cells. The plates were read with a microplate reader by measuring the absorbance of converted MTT at 490 nm. Results were expressed as the OD490 relative to that of untreated cells. Cell viability was also determined by the trypan-blue dye exclusion method.

[1] = test system: cleaved PARP in SK-MEL 19 cells; test: Leucovorin rescue, cleaved PARP level; type: cell-based, human; settings: 10 μM LV added to cells treated with TMZ/PYR
Description: as §1
Leucovorin (N-5-formyltetrahydrofolate, LV, folinic acid), a reduced form of folate, is used widely to specifically reverse the toxic effects of antifolates (27). To further confirm that PYR-enhanced TMZ chemotherapeutic efficacy in melanoma cells was due to the antifolate activity of PYR, 10 μM LV was added to cells treated with TMZ/PYR. LV rescued both the inhibition of cell growth (FIG. 8B) and the increase in apoptotic death induced by TMZ/PYR as measured by the proteolytic cleavage of PARP by caspase-3 (FIG. 8C).

[2] = Further antifolate agents as enhancers of temozolomide activity (FIGS. 9 and 10); type: cell-based; settings: FIG. 9
Description: FIG. 9 is a further graph presenting the results of tests of several antifolate agents as enhancers of anti-neoplastic activity. In the figure, N1 is pterin-6-carboxylic acid, N2 is aminopterin, N3 is amiloride and N4 is N,N-hexamethylene amiloride.
FIG. 10 presents further data from the testing of additional agents for use in accordance with the invention. Thus, TMZ was administered in combination with compounds S1-S14. The compounds tested are as follows: S1-dipyridamole. S2-methotrexate, S3-minoxidil, S4-prazosin hydrochloride, S5-pyrimethamine, S6-triamterene, S7-trimethoprim, S8-aminopterin, S9-pipemidic acid, S10-piromidic acid, S11-famciclovir, S12-alfuzocin, S13-xanthopterin, and S14-leucopterin.
In FIGS. 9 and 10, additional antifolate agents were tested, and the results indicating their activity as enhancers of TMZ activity are set forth.

[3] = cited from earlier work
[4] = test system: human melanoma cell line SK-MEL 19; test: Screening of Spectrum Collection library for enhancers of TMZ-induced growth inhibition (MTT assay); type: cell-based; settings: SK-MEL19, 1 μM compound in presence of 50 μg/ml TMZ, 96-well plates, read-out: greater growth inhibition relative to TMZ alone
Description: FIGS. 1A and 1B. […] Screening was performed with SK-Mel-19 cells in 96-well plates following by MTT assay. Cells in one set of plate were treated with each library compound alone at 1 μM while cells in the parallel plate were treated with a combination of 1 μM library compound and 50 μg/ml TMZ. Positive candidates were later reconfirmed in triplicate.
A commercial library of 2000 drugs and natural products was screened to identify novel compounds that enhance TMZ-induced growth inhibition in the human melanoma cell line SK-MEL 19. Screening was performed in 96-well plates at final compound concentration of 1 μM, in the absence or presence of 50 μg/ml TMZ, followed by MTT assay (FIG. 1A).

[5] = cited from earlier work; remark: listed apart in the source
SK-MEL 19 = test: Cell death by trypan blue dye exclusion; type: cell-based, human; settings: clinically-relevant concentration of TMZ, PYR 0.5 μM, 72 hours
Description: Melanoma cells were exposed to the indicated concentration of TMZ, PYR or both for 72 hours. In FIG. 5A, cell death was evaluated by trypan blue dye exclusion. * P<0.05, compared to 2 or 3. In FIG. 5B, cleaved Caspase-3 was determined by Western blot analysis. 1. Control; 2. TMZ (25 μg/ml); 3. PYR (0.5 μM), and 4. TMZ and PYR combination.
as §2
To investigate whether PYR can enhance the induction of cell death by TMZ, Trypan blue staining was employed to determine the ratio of dead cells versus total cells in SK-MEL 19. […]

CC1(C)N=C(N)N=C(N)N1c1ccc(Cl)cc1 [CYC, cycloguanil]
enhancement of TMZ efficacy (melanoma cells): enhance TMZ efficacy

CCc1nc(N)nc(N)c1-c1ccc(Cl)c(Cl)c1 [DDEP, etoprine]
sensitization to TMZ (effect on TMZ response curve) (SK-MEL 19 cells; 0.005 μM antifolate, MTT): significant sensitization to TMZ

Cc1nc(N)nc(N)c1-c1ccc(Cl)c(Cl)c1 [DDMP, metoprine]
sensitization to TMZ (effect on TMZ response curve) (SK-MEL 19 cells; 0.005 μM antifolate, MTT): significant sensitization to TMZ

Nc1nc2c(c(=O)[nH]1)N(C=O)C(CNc1ccc(C(=O)N[C@@H](CCC(=O)O)C(=O)O)cc1)CN2 (some centres unmarked) [LV, N-5-formyltetrahydrofolate]
rescue of increase in apoptotic death induced by TMZ/PYR (proteolytic cleavage of PARP) [1]: rescued | rescue of inhibition of cell growth induced by TMZ/PYR (SK-MEL 19 cells; 10 μM LV added to cells treated with TMZ (25 μg/ml)/PYR (0.5 μM), MTT): rescued

CN(Cc1cnc2nc(N)nc(N)c2n1)c1ccc(C(=O)N[C@@H](CCC(=O)O)C(=O)O)cc1 [MTX, methotrexate]
enhancement of TMZ efficacy (melanoma cells): enhance TMZ efficacy | sensitization to TMZ (effect on TMZ response curve) (SK-MEL 19 cells; 0.001 μM antifolate, MTT): significant sensitization to TMZ

Nc1nc2ncc(C(=O)O)nc2c(=O)[nH]1 [N1, pterin-6-carboxylic acid]
enhancement of the antineoplastic activity of temozolomide [2]: favorable enhancement

N=C(N)NC(=O)c1nc(Cl)c(N)nc1N [N3, amiloride]
enhancement of the antineoplastic activity of temozolomide [2]: favorable enhancement

NC(N)=NC(=O)c1nc(Cl)c(N2CCCCCC2)nc1N [N4, N,N-hexamethylene amiloride]
enhancement of the antineoplastic activity of temozolomide [2]: favorable enhancement

COc1ccc(OC)c(Cc2cnc3nc(N)nc(N)c3c2C)c1 [PTX, Piritrexim]
enhancement of TMZ efficacy (melanoma cells): enhance TMZ efficacy

CCc1nc(N)nc(N)c1-c1ccc(Cl)cc1 [PYR, pyrimethamine]
blood-brain barrier crossing ([3]; in vivo): easily crosses the blood-brain barrier | oral bioavailability ([3]; oral administration): bioavailable following oral administration | inhibition at 1 µM [4]: ≥ 50%

COc1cc(Cc2cnc(N)nc2N)cc(OC)c1OC [TMP, Trimethoprim]
enhancement of TMZ efficacy (melanoma cells): enhance TMZ efficacy

COc1cc(NCc2ccc3nc(N)nc(N)c3c2C)cc(OC)c1OC [TMTX, Trimetrexate]
enhancement of TMZ efficacy (melanoma cells): enhance TMZ efficacy

Cn1nnc2c(C(N)=O)ncn2c1=O [TMZ, temozolomide]
clinically achievable serum levels during chemotherapy [5]: 100 µM | cell death (ratio of dead cells versus total cells) (SK-MEL 19): approximately 15% | IC50 (SK-MEL 19 cells; Homo sapiens, SK-MEL19, TMZ alone, SK-MEL-19 cells): ~60 mg/L

S=C=NCc1ccccc1 [benzyl isothiocyanate]
inhibition at 1 µM [4]: ≥ 50%

[H]/N=C(\N/C(=N/[H])NCCCCCCNC(=N)NC(=N)Nc1ccc(Cl)cc1)Nc1ccc(Cl)cc1 [chlorhexidine]
inhibition at 1 µM [4]: ≥ 50%

Oc1ccc(Cl)c2cccnc12 [cloxyquin]
inhibition at 1 µM [4]: ≥ 50%

Nc1nc(N)c2nc(-c3ccccc3)c(N)nc2n1 [triamterene]
inhibition at 1 µM [4]: ≥ 50%

From patent US20090270397A1, “Methods and compositions for the treatment of cancers, such as melanomas and gliomas” (priority 2008, published 2009)
